Format in all cases: cell-based
In one assay the target is T1, human TLR8 (Homo sapiens, UniProt Q9NR97).
T1 construct: host or cells: HEK-Blue cells
T1 sequence (Q9NR97 27-1041): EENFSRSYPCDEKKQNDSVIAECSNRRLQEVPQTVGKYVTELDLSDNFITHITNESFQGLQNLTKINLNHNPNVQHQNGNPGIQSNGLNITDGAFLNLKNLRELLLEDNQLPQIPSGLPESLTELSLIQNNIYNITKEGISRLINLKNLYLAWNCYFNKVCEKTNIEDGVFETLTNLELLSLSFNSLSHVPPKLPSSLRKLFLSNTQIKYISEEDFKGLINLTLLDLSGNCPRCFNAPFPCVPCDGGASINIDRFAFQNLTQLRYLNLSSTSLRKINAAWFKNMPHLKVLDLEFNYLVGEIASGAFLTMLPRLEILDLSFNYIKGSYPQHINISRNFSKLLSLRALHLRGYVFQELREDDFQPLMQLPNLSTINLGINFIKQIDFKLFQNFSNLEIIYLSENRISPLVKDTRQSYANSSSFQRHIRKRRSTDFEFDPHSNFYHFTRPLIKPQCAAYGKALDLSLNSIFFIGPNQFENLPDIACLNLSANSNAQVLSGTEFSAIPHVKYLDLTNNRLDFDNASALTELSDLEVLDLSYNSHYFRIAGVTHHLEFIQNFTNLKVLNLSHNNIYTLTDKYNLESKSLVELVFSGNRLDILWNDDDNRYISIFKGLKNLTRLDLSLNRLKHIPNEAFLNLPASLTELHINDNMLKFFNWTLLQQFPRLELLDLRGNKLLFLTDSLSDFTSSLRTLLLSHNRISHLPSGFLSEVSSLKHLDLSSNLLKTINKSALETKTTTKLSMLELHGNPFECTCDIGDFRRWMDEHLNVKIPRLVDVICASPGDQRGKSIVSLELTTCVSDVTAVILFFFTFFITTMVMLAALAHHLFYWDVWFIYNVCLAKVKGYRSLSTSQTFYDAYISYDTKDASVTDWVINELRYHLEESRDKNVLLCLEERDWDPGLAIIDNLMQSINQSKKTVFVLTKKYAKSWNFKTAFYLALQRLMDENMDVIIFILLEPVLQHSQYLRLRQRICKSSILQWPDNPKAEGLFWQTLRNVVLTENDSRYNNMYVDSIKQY
In words: TLR8 inhibition reporter assay (HEK-Blue cells, SEAP reporter, R848 stimulation). Particulars: HEK-Blue cells overexpressing human TLR8, SEAP reporter, R848 15.9 μM. The essentials:
(§1)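 HEK-Blue cells with NF-κB/AP-1-driven SEAP reporter, pre-treated 30 min at room temperature with compound (0.05 nM-50 μM). Stimulants: gardiquimod 7.5 μM (TLR7), R848 15.9 μM (TLR8) or ODN2006 5 nM (TLR9). SEAP measured after 22 h at 37° C.; percent inhibition versus agonist-plus-DMSO and known-inhibitor wells.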
On the technique in general: In a reporter assay the amount or activity of a reporter protein is the signal.

The next assay concerns the target T2, human TLR7 (Homo sapiens, UniProt Q9NYK1).
T2 construct: host or cells: HEK-Blue cells
T2 sequence (Q9NYK1 27-1049): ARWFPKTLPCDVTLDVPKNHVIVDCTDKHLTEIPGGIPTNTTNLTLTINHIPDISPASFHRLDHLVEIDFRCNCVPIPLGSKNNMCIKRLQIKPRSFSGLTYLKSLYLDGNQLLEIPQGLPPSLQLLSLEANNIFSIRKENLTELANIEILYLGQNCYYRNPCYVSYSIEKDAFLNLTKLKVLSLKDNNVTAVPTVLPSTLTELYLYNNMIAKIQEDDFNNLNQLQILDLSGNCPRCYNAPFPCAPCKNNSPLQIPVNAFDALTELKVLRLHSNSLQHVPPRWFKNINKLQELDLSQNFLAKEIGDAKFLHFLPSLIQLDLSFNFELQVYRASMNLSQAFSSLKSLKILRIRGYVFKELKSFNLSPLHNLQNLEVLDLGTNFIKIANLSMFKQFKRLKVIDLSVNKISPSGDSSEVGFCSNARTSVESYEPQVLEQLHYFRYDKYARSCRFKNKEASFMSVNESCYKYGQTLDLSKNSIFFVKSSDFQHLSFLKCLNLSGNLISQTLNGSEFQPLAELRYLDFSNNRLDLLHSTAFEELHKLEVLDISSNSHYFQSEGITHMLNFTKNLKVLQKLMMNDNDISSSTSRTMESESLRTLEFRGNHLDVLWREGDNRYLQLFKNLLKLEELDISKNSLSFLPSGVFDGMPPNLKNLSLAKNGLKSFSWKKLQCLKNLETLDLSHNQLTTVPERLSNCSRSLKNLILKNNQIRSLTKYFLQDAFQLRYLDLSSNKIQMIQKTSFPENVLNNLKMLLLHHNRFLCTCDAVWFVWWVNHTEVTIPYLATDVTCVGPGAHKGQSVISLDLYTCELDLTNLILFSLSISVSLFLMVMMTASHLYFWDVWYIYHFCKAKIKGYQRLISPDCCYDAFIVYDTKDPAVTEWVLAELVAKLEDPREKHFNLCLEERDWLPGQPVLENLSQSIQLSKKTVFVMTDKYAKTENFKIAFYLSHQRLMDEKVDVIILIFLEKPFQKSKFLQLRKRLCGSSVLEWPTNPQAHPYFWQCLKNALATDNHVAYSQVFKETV
In words: TLR7 inhibition reporter assay (HEK-Blue cells, SEAP reporter, gardiquimod stimulation). Particulars: HEK-Blue cells overexpressing human TLR7, SEAP reporter, gardiquimod 7.5 μM. Summed up:
as §1

The target of the next assay is T3, human TLR9 (Homo sapiens, UniProt Q9NR96).
T3 construct: host or cells: HEK-Blue cells
T3 sequence (Q9NR96 26-1032): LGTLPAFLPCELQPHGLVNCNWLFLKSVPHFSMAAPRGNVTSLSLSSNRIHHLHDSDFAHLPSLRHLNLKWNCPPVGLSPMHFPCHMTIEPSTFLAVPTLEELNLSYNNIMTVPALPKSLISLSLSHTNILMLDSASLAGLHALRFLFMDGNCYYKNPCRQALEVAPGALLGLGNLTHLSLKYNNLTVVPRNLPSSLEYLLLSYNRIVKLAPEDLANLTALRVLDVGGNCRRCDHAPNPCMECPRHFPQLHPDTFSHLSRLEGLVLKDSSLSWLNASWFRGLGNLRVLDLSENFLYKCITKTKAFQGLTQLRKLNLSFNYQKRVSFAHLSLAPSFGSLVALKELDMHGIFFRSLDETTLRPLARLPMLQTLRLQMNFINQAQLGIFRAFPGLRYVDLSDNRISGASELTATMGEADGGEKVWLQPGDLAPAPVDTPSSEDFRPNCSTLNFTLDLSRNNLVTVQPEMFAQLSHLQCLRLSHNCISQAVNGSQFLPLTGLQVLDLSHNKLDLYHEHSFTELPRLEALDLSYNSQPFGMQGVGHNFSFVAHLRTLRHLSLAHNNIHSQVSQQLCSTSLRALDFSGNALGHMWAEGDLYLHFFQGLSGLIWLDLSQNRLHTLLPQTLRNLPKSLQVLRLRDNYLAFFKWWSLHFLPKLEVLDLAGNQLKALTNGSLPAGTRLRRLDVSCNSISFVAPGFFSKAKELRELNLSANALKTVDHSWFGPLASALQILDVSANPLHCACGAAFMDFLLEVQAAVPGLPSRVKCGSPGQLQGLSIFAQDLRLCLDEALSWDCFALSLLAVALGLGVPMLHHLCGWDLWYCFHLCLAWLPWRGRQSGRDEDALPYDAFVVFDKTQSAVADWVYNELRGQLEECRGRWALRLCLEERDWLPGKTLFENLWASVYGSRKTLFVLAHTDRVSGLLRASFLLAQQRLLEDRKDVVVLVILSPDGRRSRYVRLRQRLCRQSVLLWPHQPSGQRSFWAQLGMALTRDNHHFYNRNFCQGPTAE
As to the kind of experiment: TLR9 inhibition reporter assay (HEK-Blue cells, SEAP reporter, ODN2006 stimulation). Conditions: HEK-Blue cells overexpressing human TLR9, SEAP reporter, ODN2006 5 nM. Summed up: as §1

As a reminder, the IC50 is the concentration at which inhibition is half-maximal.

For the compound `Cc1cc(-c2[nH]c3ccc(CC4CCCN4Cc4ccccc4)cc3c2C(C)C)cn2ncnc12` (single isomer, unassigned) [Example 396, 5-[(1-benzylpyrrolidin-2-yl)methyl]-2-{8-methyl-[1,2,4]triazolo[1,5-a]pyridin-6-yl}-3-(propan-2-yl)-1H-indole], the IC50 at human TLR8 was 2.8 nM; on human TLR7, 2 nM; against human TLR9, 2380 nM.
As for `Cc1cc(-c2[nH]c3ccc(C4CCC(N(C)CC(=O)N(C)C)CC4)cc3c2C(C)C)cn2ncnc12` (single isomer, unassigned) [Example 178, 2-((4-(3-isopropyl-2-(8-methyl-[1,2,4]triazolo[1,5-a]pyridin-6-yl)-1H-indol-5-yl)cyclohexyl)(methyl)amino)-N,N-dimethylacetamide], the IC50 was 2.4 nM against human TLR8, 0.23 nM at human TLR7 and 1780 nM at human TLR9.
Taken in the same sequence, the figures for `CCc1c(-c2ccc(OC)c(OC)c2)[nH]c2ccc(CN3CC4CN(C(C)C)CC4C3)cc12` (stereo not drawn) [Example 392, 2-(3,4-dimethoxyphenyl)-3-ethyl-5-{[5-(propan-2-yl)-octahydropyrrolo[3,4-c]pyrrol-2-yl]methyl}-1H-indole] were 553 nM, 2390 nM and 1180 nM.
The matching figures for `CCc1c(-c2ccnc(C)c2)[nH]c2ccc(CNC(=O)C3CCNC3)cc12` (stereo not drawn) [Example 445]: 3240 nM, 2680 nM and 1620 nM.
The matching figures for `Cc1cc(-c2[nH]c3ccc(C4CCC(N(C)C)CC4)cc3c2C(C)C)cc(C)n1` (single isomer, unassigned) [Example 53]: 2.9 nM, 0.55 nM and 600 nM.
For `Cc1c(-c2[nH]c3ccc(C4CCC(N5CC(F)(F)C5)CC4)cc3c2C(C)C)cn2ncnc2c1C` (stereo not drawn) [Example 24], the values for the IC50 on human TLR8, against human TLR7 and on human TLR9 were 21 nM, 7 nM and 24900 nM, respectively.
The matching figures for `COc1cc(-c2[nH]c3ccc(C4CCC(N5CCOCC5)CC4)cc3c2C(C)C)cn2ncnc12` (stereo not drawn) [Example 69]: 0.59 nM, 0.22 nM and 1670 nM.
